One data set relates to EK-2703 (BAR Lp 2703). Format: in vivo, Lolium perenne. The settings on record: Average June/July 1998, 9=completely green. Here is the method:
The mean turf color rating for the BAR LP 2703 variety in this perennial ryegrass turf trial that was seeded in the spring of 1998 (at 16 kg/ha) in Wolfheze was 7.6 in June/July 1998 (9=completely green).

A further data set has as its system BAR Lp 2703. The class given is in vivo, Lolium perenne. The settings on record: 40 days after first application, scale 1-9, 9=perfect turf. The source says:
(§1) This example provides methods and results of field trials in which the glyphosate tolerance characteristics of BAR Lp 2703 were examined and compared with Peak perennial ryegrass in Florence, S.C.
(§2) Peak and LP2703 perennial ryegrasses were overseeded at 350 lb/acre on dormant Bermuda grass base on Oct. 7, 2003. Turf quality was rated 7 times between Nov. 10, 2003 and Mar. 2, 2004. Turf quality fluctuated between 6.0 and 7.5 with changes in weather and fertilization (rated on a scale of 1-9 with 1=bare soil and 9=perfect turf).
(§3) Experimental treatments were 0, 3, 5, 6, 8, 10, and 16 ounces Roundup PROS per acre. One application of each treatment was applied on Mar. 12, 2004 to plots 3 feet wide by 6 feet long. The 3 and 6 oz/acre treatments were applied a second time on Mar. 28, 2004. There were two replications of each treatment applied to each cultivar. Applications were made in 2 gallons of water per 1000 square feet with a CO2-charged backpack sprayer.
(§4) Turf damage was rated on a scale of 0-9 with 0=no damage and 9=complete damage 7, 14, and 21 days after the first spray. Damage was not evident prior to 7 days.
(§5) The ratings shown in Table 10 were obtained 40 days after the first application of glyphosate (24 days after 2nd application).

In the next data set the test system is Peak. Kind of data set: Field trial Florence, S.C.: glyphosate tolerance, turf damage and turf quality. Format: in vivo, perennial ryegrass. The settings on record: 40 days after first application, scale 1-9, 9=perfect turf.
Text: as §1, §2, §3, §4, §5

Read-outs that look alike come from different tables or passages of the source.

Consider one compound from patent publication US7465857B1, “Glyphosate tolerant perennial ryegrass” (priority 2004, dated 2008).

On to `O=C(O)CNCP(=O)(O)O` [Glyphosate, N-(phosphonomethyl) glycine], for which, in the data set with EK-2703 (BAR Lp 2703), the “Turf Color After Spraying” value came out at 7.6. For the same compound, the Turf quality ratings with BAR Lp 2703 (3 oz/acre twice) is recorded as 6.4; in the data set on BAR Lp 2703 (5 oz/acre), 7.3; in the data set with BAR Lp 2703 (6 oz/acre twice), 5.8; in the data set with BAR Lp 2703 (8 oz/acre), 7.8; with BAR Lp 2703 (10 oz/acre) it was 8.0; with BAR Lp 2703 (16 oz/acre), 6.5. For the same compound, the Turf quality ratings with Peak (3 oz/acre twice) is 5.4; in the data set on Peak (5 oz/acre) it was 6.8; in the data set on Peak (6 oz/acre twice), 2.5; in the data set with Peak (8 oz/acre), 7.7; with Peak (10 oz/acre), 7.0; with Peak (16 oz/acre), 5.9.
